Experimental data: PMC9188586, “Design, synthesis and evaluation of novel tetrahydropyridothienopyrimidin-ureas as cytotoxic and anti-angiogenic agents” (Scientific Reports, 2022)

Tests used:
MCF-7 (breast cancer) = experiment: MTT antiproliferative assay, MCF-7; assay type: cell-based; conditions: Homo sapiens, MCF7, 48 h incubation
Protocol: (§1) Two series of new tetrahydropyridothienopyrimidines were evaluated for their cytotoxicity against a panel of cell lines, including MCF-7 (breast cancer), SW480 (colon cancer), PC-3 (prostate cancer), HEPG-2 (liver cancer) and HUVEC (human umbilical vein endothelial cell) using 3-(4,5-dimethyl- thiazol-2-yl)-2,5-diphenyltetrazolium bromide (MTT) assay. Sorafenib was used as a positive control. The cytotoxicity is expressed as the concentration that inhibits 50% of cell viability (IC50). […] The preliminary SAR is evaluated on the basis of cytotoxicity results of phenyl derivatives (11a–k) and pyridine derivatives (11l–11y).The mesomeric effect didn’t improve the cytotoxicity of compound 11d in the first series.
(§2) Cytotoxicity of the compounds was measured by detecting the ability of cells in transforming MTT into a purple formazan dye. The different cell lines were provided by the National Cell Bank of Iran (Pastor Institute, Tehran, Iran). The required materials and reagents were purchased from Sigma. After the cell culture in RPMI-1640 medium and DMEM containing 10% FBS (Gibco, Milano, Italy), the suspension of MCF-7 (7000) and other cells (5000) were poured into 96 well plates and incubated in a humidified incubator containing 5% CO2 at 37 °C for 24 h. Subsequently, a solution of the compounds in DMSO was added to these plates and incubated for 48 h. After incubation, the solution of 5% 3-(4,5-Dimethyl-2-thiazolyl)-2,5-diphenyl-2H-tetrazolium bromide (MTT) was added to all the wells and incubation was continued for another 4 h. The record of color intensity of the formazan solution was at 570 nm by Bio-Rad microplate reader (Model 680) which reflects the cell growth condition.

PC-3 (prostate cancer) = experiment: MTT antiproliferative assay, PC-3; assay type: cell-based; conditions: 48 h incubation
Protocol: as §1, §2

SW480 (colon cancer) = experiment: MTT antiproliferative assay, SW480; assay type: cell-based; conditions: Homo sapiens, SW480, 48 h incubation
Protocol: as §1, §2

HEPG-2 (liver cancer) = experiment: MTT antiproliferative assay, HEPG-2; assay type: cell-based; conditions: Homo sapiens, HepG2, 48 h incubation
Protocol: as §1, §2

[1] = tested on: HUVEC (human umbilical vein endothelial cell); experiment: MTT antiproliferative assay, HUVEC; assay type: cell-based; conditions: for IC50: Homo sapiens, HUVEC, MTT assay, 48 h incubation
Protocol: as §1, §2

MRC5 normal cell line = experiment: MTT cytotoxicity against normal cell line MRC5; assay type: cell-based; conditions: for IC50: Homo sapiens, MRC5, MTT assay, normal cell line; for SI (Selectivity Index): IC50 value normal cell (MRC5)/IC50 value cancer cell (MCF-7)
Protocol: as §2

HUVEC cells = experiment: Annexin V/PI flow cytometry apoptosis analysis, HUVEC; assay type: cell-based, human; conditions: IC50 concentration
Protocol: (§3) The experiment was conducted by flow cytometry analysis of […] cells with propidium iodide (PI) and annexin V-fluorescein isothiocyanate (annexine V-FITC).
(§4) Then, cells were trypsinized, rinsed with phosphate-bufferede buffered saline (PBS) and then centrifuged at 1200 rpm for 3 min. After this, the binding buffer (500 μL) was added to the resulting cells, followed by addition and mixing with […] and PI (5 μL). After this, the samples were incubated in dark for 10 to 15 min at room temperature, and then the cellular analysis was measured by flow cytometer (FACS Calibur Bectone-Dickinson).

MCF-7 cells [2] = experiment: Annexin V/PI flow cytometry apoptosis analysis, MCF-7; assay type: cell-based; conditions: MCF-7, IC50 concentration
Protocol: as §3, §4

[3] = tested on: chick chorioallantoic membrane (CAM); experiment: Chick chorioallantoic membrane (CAM) anti-angiogenic assay; assay type: in vivo; conditions: IC50 concentration, compared with Sorafenib as positive control
Protocol: The hydrogen bonding between NH groups of urea and target proteins were known to give rise to better inhibition of an important growth factor receptor (VEGFR-2) involved in the process of angiogenesis. Thus, the chick chorioallantoic membrane (CAM) assay was utilized as an in-vivo technique to evaluate the anti-vascular effects. Therefore, the anti-angiogenic strength of compounds were investigated by a cheap and simple CAM assay (Figs. 4, 5)[32],[33]. The anti-angiogenic strength was measured and compared with DMSO (control) and Sorafenib as a positive control.
All eggs were supplied from (Poultry Breeding Farm, Tehran, Iran). Since the allantois of the chick embryo appears at about 3.5 days of incubation, the corresponding eggs were incubated (37.5 °C, relative humidity: 55–65%). To decrease the risk of infection, the particular regions of the egg, e.g., the front side of the embryo were cleaned and sterilized with 70% EtOH. On the 6th incubation day, a false air sac was created directly over the CAM, permitting its detachment from the shell membrane. The procedure was continued through a square incision over the CAM. The prepared window in a square form (1 × 1 cm), was covered by a flexible film and then transported to the incubator. On the 8th incubation day, the particular paper discs (Whatman) were coated with target agents and placed in the central area of the corresponding window. The surface of CAM was visually evaluated on the 12th incubation day using the stereomicroscope. We decided to use the number and the length of capillary blood vessels as the index of anti-angiogenic activity. Consequently, the prepared images were analyzed by the advantageous software, Image J[22],[23].

caspase-3 = experiment: Caspase-3 level by ELISA in MCF-7 cells; assay type: cell-based, human; conditions: 24 h, 11n at 2.67 μM, Sorafenib at 7.06 μM
Protocol: The activity of caspase (cysteinyl-aspartate-specific proteases) as intracellular cell death enzymes has been characterized. So, the […] the process[28]–[31].
Caspase-3 activity was measured using a caspase-3 (Active) (human) ELISA kit, MBS450774, according to the manufacturer’s instructions.

MCF-7 cells [4] = experiment: Cell cycle analysis by flow cytometry, MCF-7; assay type: cell-based; conditions: MCF-7, IC50 concentration, 48 h
Protocol: We can conclude that compound 11n induces cellular apoptosis in […]. An increase in sub-G1 area is an indicative of apoptosis.
After trypsinization and rinsing with PBS, the cells were centrifuged at 1200 rpm for 5 min and then incubated with PBS and fixed in ice-cooled 70% ethanol. After washing with PBS, the cells were resuspended in RNase A (0.1 mg/mL) and incubated for 5 h. Then, staining with PI ([…]) and incubation for 15 min were performed. By using Novocyte flow cytometer (ACEA Biosciences) the analysis was done and the calculation of cell cycle distributions was done by NovoExpress 1.1.0 software.

SMILES: COc1ccc(NC(=O)Nc2nnc(Sc3ncnc4sc5c(c34)CCN(Cc3ccccc3)C5)s2)cc1 [Compound 11d, 1-(5-((7-benzyl-5,6,7,8-tetrahydropyrido[4',3':4,5]thieno[2,3-d]pyrimidin-4-yl)thio)-1,3,4-thiadiazol-2-yl)-3-(4-methoxyphenyl)urea]
- IC50 (MCF-7 (breast cancer)): 51.92 ± 0.47 µM
- IC50 (PC-3 (prostate cancer)): 44 ± 1.52 µM
- IC50 (SW480 (colon cancer)): 45.1 ± 1.7 µM
- IC50 (HEPG-2 (liver cancer)): 43.92 ± 0.16 µM
- IC50 [1]: 44.15 ± 0.22 µM
- melting point: 280 to 282 °C

SMILES: O=C(Nc1ccc(Cl)c(Cl)c1)Nc1nnc(Sc2ncnc3sc4c(c23)CCN(Cc2ccccc2)C4)s1 [Compound 11h, 1-(5-((7-benzyl-5,6,7,8-tetrahydropyrido[4',3':4,5]thieno[2,3-d]pyrimidin-4-yl)thio)-1,3,4-thiadiazol-2-yl)-3-(3,4-dichlorophenyl)urea]
- IC50 (MCF-7 (breast cancer)): 8.52 ± 0.02 µM
- IC50 (PC-3 (prostate cancer)): 70.2 ± 1.92 µM
- IC50 (SW480 (colon cancer)): 64.2 ± 2.2 µM
- IC50 (HEPG-2 (liver cancer)): 53.71 ± 0.5 µM
- IC50 [1]: 7.44 ± 0.06 µM
- IC50 (MRC5 normal cell line): 41.2 ± 0.45 µM
- SI (Selectivity Index) (MRC5 normal cell line): 4.8
- Apoptosis induction (in words) (HUVEC cells): unable to induce apoptosis
- Apoptosis induction (in words) (MCF-7 cells [2]): unable to induce apoptosis
- Inhibitory effect on growing CAM (in words) [3]: slightly weaker inhibitory effects
- melting point: 190 to 192 °C

SMILES: O=C(Nc1ccc(Cl)cc1)Nc1nnc(Sc2ncnc3sc4c(c23)CCN(Cc2ccncc2)C4)s1 [Compound 11u, 1-(4-chlorophenyl)-3-(5-((7-(pyridin-4-ylmethyl)-5,6,7,8-tetrahydropyrido[4',3':4,5]thieno[2,3-d]pyrimidin-4-yl)thio)-1,3,4-thiadiazol-2-yl)urea]
- IC50 (MCF-7 (breast cancer)): 8.1 ± 0.02 µM
- IC50 (PC-3 (prostate cancer)): 4.96 ± 0.18 µM
- IC50 (SW480 (colon cancer)): 60.7 ± 1.13 µM
- IC50 (HEPG-2 (liver cancer)): 27.8 ± 1.84 µM
- increase of cytotoxicity against HUVEC on moving chlorine to para position ([1]; 11t vs 11u): ~30 folds
- IC50 [1]: 2.08 ± 0.01 µM
- melting point: 188 to 190 °C

SMILES: O=C(Nc1cccc(C(F)(F)F)c1)Nc1nnc(Sc2ncnc3sc4c(c23)CCN(Cc2ccccc2)C4)s1 [Compound 11j, 1-(5-((7-benzyl-5,6,7,8-tetrahydropyrido[4',3':4,5]thieno[2,3-d]pyrimidin-4-yl)thio)-1,3,4-thiadiazol-2-yl)-3-(3-(trifluoromethyl)phenyl)urea]
- IC50 (MCF-7 (breast cancer)): 68.94 ± 0.63 µM
- IC50 (PC-3 (prostate cancer)): 73.8 ± 2.92 µM
- IC50 (SW480 (colon cancer)): 46.8 ± 1.13 µM
- IC50 (HEPG-2 (liver cancer)): 63 ± 0.64 µM
- IC50 [1]: 67.1 ± 1.85 µM
- melting point: 181 to 183 °C

SMILES: O=C(Nc1ccccc1)Nc1nnc(Sc2ncnc3sc4c(c23)CCN(Cc2ccccc2)C4)s1 [Compound 11a, 1-(5-((7-benzyl-5,6,7,8-tetrahydropyrido[4',3':4,5]thieno[2,3-d]pyrimidin-4-yl)thio)-1,3,4-thiadiazol-2-yl)-3-phenylurea]
- IC50 (MCF-7 (breast cancer)): 23.34 ± 0.18 µM
- IC50 (PC-3 (prostate cancer)): 34.4 ± 1.64 µM
- IC50 (SW480 (colon cancer)): 24.5 ± 0.72 µM
- IC50 (HEPG-2 (liver cancer)): 7.34 ± 0.01 µM
- IC50 [1]: 19.06 ± 0.12 µM
- melting point: 230 to 232 °C

SMILES: Cc1cccc(NC(=O)Nc2nnc(Sc3ncnc4sc5c(c34)CCN(Cc3ccccc3)C5)s2)c1 [Compound 11b, 1-(5-((7-benzyl-5,6,7,8-tetrahydropyrido[4',3':4,5]thieno[2,3-d]pyrimidin-4-yl)thio)-1,3,4-thiadiazol-2-yl)-3-(m-tolyl)urea]
- IC50 (MCF-7 (breast cancer)): 8.22 ± 0.09 µM
- IC50 (PC-3 (prostate cancer)): 46.8 ± 1.49 µM
- IC50 (SW480 (colon cancer)): 67.7 ± 2.53 µM
- IC50 (HEPG-2 (liver cancer)): 48.1 ± 0.22 µM
- IC50 [1]: 18.89 ± 0.09 µM
- IC50 (MRC5 normal cell line): 32.1 ± 0.92 µM
- SI (Selectivity Index) (MRC5 normal cell line): 3.9
- Apoptosis induction (in words) (HUVEC cells): unable to induce apoptosis
- Apoptosis induction (in words) (MCF-7 cells [2]): unable to induce apoptosis
- melting point: 138 to 139 °C

SMILES: O=C(Nc1cccc(F)c1)Nc1nnc(Sc2ncnc3sc4c(c23)CCN(Cc2ccncc2)C4)s1 [Compound 11q, 1-(3-fluorophenyl)-3-(5-((7-(pyridin-4-ylmethyl)-5,6,7,8-tetrahydropyrido[4',3':4,5]thieno[2,3-d]pyrimidin-4-yl)thio)-1,3,4-thiadiazol-2-yl)urea]
- IC50 (MCF-7 (breast cancer)): 9.17 ± 0.04 µM
- IC50 (PC-3 (prostate cancer)): 4.5 ± 0.03 µM
- IC50 (SW480 (colon cancer)): 21.8 ± 0.72 µM
- IC50 (HEPG-2 (liver cancer)): 74.3 ± 2.12 µM
- IC50 [1]: 10.13 ± 0.05 µM
- melting point: 243 to 246 °C

SMILES: CNC(=O)c1cc(Oc2ccc(NC(=O)Nc3ccc(Cl)c(C(F)(F)F)c3)cc2)ccn1 [Sorafenib, reference compound]
- IC50 (MCF-7 (breast cancer)): 7.06 ± 0.17 µM
- IC50 (PC-3 (prostate cancer)): 5.45 ± 0.11 µM
- IC50 (SW480 (colon cancer)): 19.8 ± 0.12 µM
- IC50 (HEPG-2 (liver cancer)): 29.6 ± 0.31 µM
- IC50 [1]: 2.81 ± 0.71 µM
- Casp3 conc. (caspase-3): 4.54 ± 0.25 ng/mL

SMILES: Cc1cccc(NC(=O)Nc2nnc(Sc3ncnc4sc5c(c34)CCN(Cc3ccncc3)C5)s2)c1 [Compound 11m, 1-(5-((7-(pyridin-4-ylmethyl)-5,6,7,8-tetrahydropyrido[4',3':4,5]thieno[2,3-d]pyrimidin-4-yl)thio)-1,3,4-thiadiazol-2-yl)-3-(m-tolyl)urea]
- IC50 (MCF-7 (breast cancer)): 3.35 ± 0.01 µM
- IC50 (PC-3 (prostate cancer)): 11.79 ± 0.11 µM
- IC50 (SW480 (colon cancer)): 61.23 ± 0.44 µM
- IC50 (HEPG-2 (liver cancer)): 27.76 ± 0.13 µM
- IC50 [1]: 1.15 ± 0.03 µM
- IC50 (MRC5 normal cell line): 33.2 ± 0.44 µM
- Early apoptotic cells (Q3) (HUVEC cells; 48 h, one replicate): 10.1%
- Late apoptotic cells (Q2) (HUVEC cells; 48 h, one replicate): 52.5%
- Percentage of cell population in the S phase (MCF-7 cells [4]): 32.9%
- Inhibitory effect on growing CAM (in words) [3]: slightly weaker inhibitory effects
